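How tested: cells in 96-well plates exposed to compound for 48 hours at five concentrations. Here, GI50 denotes the concentration required for 50% inhibition of growth. Definition used: TGI = concentration required for complete inhibition of growth.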
Legend:
Test in all cases: inhibition of tumour cell growth, NCI panel, 48 h
HCT-116 colon = tested on: HCT-116 colon
NCI-H522 lung = tested on: NCI-H522 lung
OVCAR-8 ovarian = tested on: OVCAR-8 ovarian
SN12C renal = tested on: SN12C renal
SF-268 CNS = tested on: SF-268 CNS
ACHN renal = tested on: ACHN renal
MDA-MB-435 = tested on: MDA-MB-435
CCRF-CEM leukemia = tested on: CCRF-CEM leukemia
M14 melanoma = tested on: M14 melanoma
HL-60(TB) leukemia = tested on: HL-60(TB) leukemia

SMILES | GI50 (HCT-116 colon) | TGI (HCT-116 colon) | GI50 (NCI-H522 lung) | TGI (NCI-H522 lung) | GI50 (OVCAR-8 ovarian) | TGI (OVCAR-8 ovarian) | GI50 (SN12C renal) | TGI (SN12C renal) | GI50 (SF-268 CNS) | TGI (SF-268 CNS) | GI50 (ACHN renal) | TGI (ACHN renal) | GI50 (MDA-MB-435) | TGI (MDA-MB-435) | GI50 (CCRF-CEM leukemia) | TGI (CCRF-CEM leukemia) | GI50 (M14 melanoma) | TGI (M14 melanoma) | GI50 (HL-60(TB) leukemia) | TGI (HL-60(TB) leukemia)
O=c1[nH]cnc2nc(-c3ccc(N(CCCl)CCCl)cc3)[nH]c12 | 12.6 µM | > 100 µM | > 100 µM | > 100 µM | 8.89 µM | > 100 µM | 63.7 µM | > 100 µM | 28.6 µM | > 100 µM | 2.58 µM | 33.5 µM | 3.21 µM | > 100 µM | > 100 µM | > 100 µM | 4.97 µM | > 100 µM | > 100 µM | > 100 µM
CC(=O)Nc1cc2cc(NS(=O)(=O)c3cc(C(F)(F)F)cc(C(F)(F)F)c3)ccc2oc1=O | – | > 100 µM | – | > 100 µM | – | > 100 µM | – | > 100 µM | – | > 100 µM | – | > 100 µM | – | > 100 µM | – | > 100 µM | – | > 100 µM | – | > 100 µM
COc1cccc2ccc3c(c12)C(=O)OC31CCc2c(C)cccc21 (stereo not given) | – | > 31.6 µM | – | > 31.6 µM | – | > 46.4 µM | – | > 46.4 µM | – | > 46.4 µM | – | 40.5 µM | – | > 100 µM | – | > 100 µM | – | > 46.4 µM | – | 32.9 µM
C=C1C(=O)O[C@H]2[C@H]1CC/C(COC(=O)/C=C/c1c[nH]c3ccccc13)=C\CC[C@@]1(C)O[C@@H]21 | 0.185 µM | 0.425 µM | 0.186 µM | 0.371 µM | 0.191 µM | 0.421 µM | 0.197 µM | 0.478 µM | 0.229 µM | 0.569 µM | 0.202 µM | 0.545 µM | 0.222 µM | 0.582 µM | 0.0733 µM | 0.854 µM | 0.221 µM | 0.572 µM | 0.256 µM | 0.717 µM
N#CC1CCc2c(c(-c3cn[nH]c3C(F)(F)F)nc3c(F)cc4[nH]ncc4c23)C1 (stereo not given) | 3.15 µM | 19.6 µM | 2.31 µM | 8.61 µM | 13.7 µM | > 100 µM | 4.22 µM | 68.4 µM | 5.02 µM | 27.4 µM | 8.21 µM | 75.1 µM | 4.43 µM | 41.1 µM | 4.06 µM | > 100 µM | 3.88 µM | 21.7 µM | 2.56 µM | 16.9 µM
N#Cc1ncc(N2C(=O)C3(CCC3)N(c3ccc(OC4CCNCC4)nc3)C2=S)cc1C(F)(F)F | 11.7 µM | 24.4 µM | 18.1 µM | 35.5 µM | 25.1 µM | 76.2 µM | 15.8 µM | 36 µM | 18.6 µM | 43.2 µM | 17.7 µM | 32 µM | 15.8 µM | 31.3 µM | 13.5 µM | 39.1 µM | 7.31 µM | 20.6 µM | 12.1 µM | 33.9 µM
COc1ccc(S(=O)(=O)n2c3ccccc3n3ncc(-c4nnc(C)o4)c23)cc1 | 0.387 µM | 24 µM | 0.42 µM | > 73.6 µM | 1.27 µM | > 100 µM | 0.73 µM | 39.6 µM | 3.11 µM | > 74.1 µM | 0.567 µM | > 100 µM | 0.339 µM | > 100 µM | 0.431 µM | > 100 µM | 0.373 µM | 18.7 µM | 0.273 µM | 0.841 µM
CCN(CC)CCOc1nc2cc(OC)c(OC)cc2c2c1-c1ccc(OC)cc1C2=O | 1.35 µM | 2.63 µM | 0.312 µM | 18.7 µM | 8.62 µM | 21.4 µM | 5.29 µM | 21.1 µM | 4.93 µM | 21.9 µM | 11.5 µM | 23.8 µM | 13.3 µM | 26 µM | 0.54 µM | 12.3 µM | 11.7 µM | 24 µM | 13.4 µM | 34.6 µM
Cc1nn2c(/C=C3\C(=O)Nc4ccccc43)c(C)nc2s1 | 15.7 µM | > 100 µM | 18.5 µM | > 100 µM | 77.8 µM | > 100 µM | > 100 µM | > 100 µM | 54.6 µM | > 100 µM | > 100 µM | > 100 µM | 2.85 µM | > 100 µM | 30.1 µM | > 100 µM | 12.3 µM | > 100 µM | 21 µM | > 100 µM
CCC(=O)OC1=CN2C(=NC(c3ccc(N)cc3)=CC2c2cc(OC)c(OC)c(OC)c2)S1 (stereo not given) | 3.51 µM | 13.1 µM | 3.49 µM | 12.6 µM | 3.39 µM | 22.3 µM | 4.34 µM | 22.2 µM | 3.57 µM | 14.4 µM | 3.35 µM | 18.2 µM | 2.98 µM | 14.1 µM | 2.41 µM | 9.13 µM | 4.18 µM | 17.6 µM | 3.01 µM | > 100 µM
N#Cc1ccc2c(c1)C(=O)c1c-2n(CCCN=[N+]=[N-])c(=O)c2cc([N+](=O)[O-])ccc12 | 3.91 µM | > 50 µM | 37.4 µM | > 50 µM | > 50 µM | > 50 µM | 47.2 µM | > 50 µM | 5.03 µM | > 50 µM | 5.28 µM | > 50 µM | > 50 µM | > 50 µM | 1.82 µM | > 50 µM | 29.9 µM | > 50 µM | > 50 µM | > 50 µM
O=C(O)c1cc2c(c3ccsc13)-c1ccccc1CC2 | 34.9 µM | > 100 µM | 29 µM | 82.1 µM | 40.7 µM | > 100 µM | 32.1 µM | > 100 µM | 44 µM | > 100 µM | 36.6 µM | > 100 µM | 42.7 µM | > 100 µM | 37.6 µM | > 100 µM | 42.2 µM | > 100 µM | 37.5 µM | > 100 µM
COc1ccc(/C=C/c2cnc3ccccc3n2)cc1OC | – | > 100 µM | – | 69.5 µM | – | > 100 µM | – | > 100 µM | – | > 100 µM | – | > 100 µM | – | > 100 µM | – | > 100 µM | – | > 100 µM | – | > 100 µM

Source: PubChem BioAssay (NCI)
